Consider four molecules from BindingDB's records for doi:10.1021/jm058046w (Martin-Luther-University Halle-Wittenberg, 2006).

The IC50 is the point on the concentration scale where inhibition reaches its midpoint.

This data set in a line: Cytotoxicity against mouse MDR1 transfected L5178YvMDR cell line.

SMILES strings stand for the structures.

Molecule `CC(C)(C)OC(=O)N1C2C3C4N(C(=O)OC(C)(C)C)C5C(C1[C@]5(CO)[C@H]3c1ccccc1)[C@@H](c1ccccc1)[C@@]24CO` [3,9-di(tert.)butoxycarbonyl-1,7-dihydroxymethyl-6,12-diphenyl-3,9-diazahexacyclo[6.4.0.0(2.7)0(4.11)0(5.10)]dodecane] gave a concentration for half-maximal inhibition (IC50) of 3.2 µM.

Molecule `OC[C@]12C3C4C1N(Cc1ccccc1)C1C(C(N3Cc3ccccc3)[C@]1(CO)[C@H]4c1ccccc1)[C@H]2c1ccccc1` [3,9-dibenzyl-1,7-dihydroxymethyl-6,12-diphenyl-3,9-diazahexacyclo[6.4.0.0(2.7)0(4.11)0(5.10)]dodecane] showed an IC50 of 13.3 µM.

`O=C(Oc1ccccc1)N1C2C3C4N(C(=O)Oc5ccccc5)C5C(C1[C@]5(CO)[C@H]3c1ccccc1)[C@@H](c1ccccc1)[C@@]24CO` [1,7-dihydroxymethyl-6,12-diphenyl-3,9-diphenoxycarbonyl-3,9-diazahexacyclo[6.4.0.0(2.7)0(4.11)0(5.10)]dodecane] registered an IC50 of 21 µM.

As for `CN1C2C3C4N(C)C5C(C1[C@]5(CO)[C@H]3c1ccccc1)[C@@H](c1ccccc1)[C@@]24CO` [1,7-dihydroxymethyl-3,9-dimethyl-6,12-diphenyl-3,9-diazahexacyclo[6.4.0.0 2.7.0 4.11.0. 5.10]dodecane], it took 7.5 µM to reach half-maximal inhibition (IC50).
